Assay results reported in patent EP0462621A2, “Use of particular compounds for manufacture of pharmaceutical formulations for treatment against various parasites, mycoplasmas, other indications and other infections” (Prendergast, Patrick Thomas, priority 1990, dated 1991).

What was measured:
L donovani [1] = assay: Leishmania promastigote (PRO) in-vitro screen; format: cell-based; settings: Ld.
From the text: (§1) Following initial infection, the amastigote is the only form present in the mammalian host, surviving and dividing in various macrophage populations. Differences between the promastigote and amastigote in form and habitat are not matched by known biochemical dissimilarities. However, the drug susceptibility of the cultured promastigote, used in many early chemotherapy screens, contrasts markedly with that of the amastigote (see Table 1, below), most importantly to the clinically used pentavalent antimonials - sodium stibogluconate (Pentostam) and meglumine antimoniate (Glucantime).
(§2) Amastigotes of Leishmania can be cultivated in a wide range of mammalian cells, some of which may be used in in-vitro screens. These include (1) a Sticker dog sarcoma (fibroblast) cell line, (2) transformed rodent macrophage cell lines, (3) primary isolated mouse peritoneal macrophages (MP mo), and (4) human monocyte-derived macrophages (HM mo). The methods are similar for all models. Amastigote or promastigote infected cells are maintained in a medium containing the drug for 4-7 days, at 37 C for L. donovani and 33-35 C for L. major and L. mexicana. Drug activity is then assessed by counting (I) the number of infected host cells and/or (II) the number of amastigotes/100 host cells.
(§3) In-vitro and in-vivo models were used to test activities of a selection of many compounds. Those activities are summarized in Tables 1-3, showing variation between systems and species. Activities measured in the MP mo and HM mo models have shown the best correlation with results obtained in hamster and mouse models.

L major/L mexicana [2] = assay: Leishmania promastigote (PRO) in-vitro screen; format: cell-based; settings: Lm.
From the text: as §1, §2, §3

L donovani [3] = assay: Amastigote-promastigote (AM-PRO) transformation, in-vitro; format: cell-based; settings: Ld.
L donovani [4] = assay: Amastigotes (AM) in cell lines, in-vitro; format: cell-based; settings: Ld., Amastigote; note: key: - no/poor activity,; + fair/moderate activity,; ++ good/excellent activity
From the text: as §2, §3

L major/L mexicana [5] = assay: Amastigotes (AM) in cell lines, in-vitro; format: cell-based; settings: Lm., Amastigote; note: key: - no/poor activity,; + fair/moderate activity,; ++ good/excellent activity
From the text: as §2, §3

L donovani [6] = assay: Amastigotes (AM) in mouse or human macrophages (mos), in-vitro; format: cell-based; settings: Ld., Amastigote
From the text: as §2, §3

L major/L mexicana [7] = assay: as above; format: cell-based; settings: Lm., Amastigote
From the text: as §2, §3

L donovani [8] = assay: Leishmania mouse/hamster models, in-vivo; settings: Ld. Note: key: - no/poor activity,; + fair/moderate activity,; ++ good/excellent activity.
From the text: as §3

L major/L mexicana [9] = assay: Leishmania mouse/hamster models, in-vivo; settings: Lm. Note: key: - no/poor activity,; + fair/moderate activity,; ++ good/excellent activity.
From the text: as §3

L major/L mexicana [10] = assay: Amastigote-promastigote (AM-PRO) transformation, in-vitro; format: cell-based; settings: Lm.
T. cruzi [11] = assay: T. cruzi epimastigote (EPI) in-vitro screen; format: cell-based
Description: (§5) In-vitro chemotherapy screens have for many years used models involving three stages of the T. cruzi life cycle: • (1) Epimastigote. Dividing populations are easily cultivated in a range of defined and semi-defined media, but are equivalent to a vector stage of the life cycle. • (2) Trypomastigote. These are isolated from a rodent host and can be maintained as a non-dividing population for 24-48 h in media. • (3) Amastigote. Dividing populations can be cultivated in muscle cells, fibroblasts and macrophages, following infection with trypomastigotes. After the initial infection, there is normally a period of 4-5 days during which the amastigotes divide before transforming, via the epimastigote stage, back to trypomastigotes which escape from the cell. Drug activity is measured during this 4-5 day period. A dividing host cell population, low infection rate, and the presence of trypomastigotes in the overlay can complicate the interpretation of results.

T. cruzi [12] = assay: T. cruzi trypomastigote (TRY) in-vitro screen; format: cell-based
Description: as §5

T. cruzi [13] = assay: T. cruzi intracellular amastigote (AM) in-vitro screen; format: cell-based
Description: Dividing populations can be cultivated in muscle cells, fibroblasts and macrophages, following infection with trypomastigotes. After the initial infection, there is normally a period of 4-5 days during which the amastigotes divide before transforming, via the epimastigote stage, back to trypomastigotes which escape from the cell. Drug activity is measured during this 4-5 day period. A dividing host cell population, low infection rate, and the presence of trypomastigotes in the overlay can complicate the interpretation of results.
Intracellular amastigote models can use a range of muscle (skeletal and cardiac) and fibroblast (e.g. HeLa, HePa) cell lines, macrophages, and chick embryo cells. […] To overcome the problems of overgrowth of the monolayer and a low percentage of infected cells, often associated with the use of cell lines, irradiated rat L6 myoblasts are used.

T. cruzi [14] = assay: T. cruzi mouse model, in-vivo
From the text: as §3

[15] = system: T.b. brucei, T.b. gambiense and T.b. rhodesiense; assay: Procyclic trypomastigote (TRY) in-vitro screen; format: cell-based; note: key: - no/poor activity,; + fair/moderate activity,; ++ good/excellent activity
Description: (§4) Primary screening for new trypanocides has made extensive use of rodent systems, in which host survival time is a simple indicator of drug activity. In-vitro screens have used a variety of trypomastigote types (see Table 3, below). […] Most early in-vitro screens employed a short test in which bloodstream trypomastigotes were isolated from an infected rodent and maintained for up to 24 h in a simple drug-containing media. Two significant modifications of this technique include maintaining isolated bloodstream trypomastigotes in drug-containing media for 3-4 hours at 37° C in micro-titre plates and their subsequent viability assessed by the uptake of radiolabelled precursors or motility and infectivity to mice.
as §3

[16] = system: T.b. brucei, T.b. gambiense and T.b. rhodesiense; assay: Isolated bloodstream trypomastigote (TRY) in-vitro screen; format: cell-based
Description: as §4
In-vitro studies on isolated bloodstream trypomastigotes were also used in the rational biochemical approaches towards the chemotherapy of T. brucei infections involving inhibitors of carbohydrate catabolism salicyl hydroxamic acid plus glycerol), of polyamine synthesis (methylgyoxal bis-guanylhydrazone and - DFMO), and of surface coat glycoprotein synthesis (Tunicamycin). In these studies, activity of the compounds are shown in-vitro and in-vivo, whereas the sensitivity of isolated bloodstream trypomastigotes to toxic oxygen radicals generated by naphthoquinones was not shown by the parasites in mice. The activity of the standard anti-trypanosomals-melarsoprol, pentamidine and suramin and tested compounds according to the present invention in in-vitro systems is shown in Table 3.
as §3

[17] = system: T.b. brucei, T.b. gambiense and T.b. rhodesiense; assay: Cultivated bloodstream trypomastigote (TRY) in-vitro screen; format: cell-based
From the text: Culture systems developed in the last decade have used mammalian cell feeder layers to support the growth of dividing populations of bloodstream trypomastigotes of T. brucei spp. Some of these systems have been used in chemotherapy studies, including; (1) bovine fibroblast culture - T. brucei models to test some standard and experimental compounds, (2) murine bone marrow culture - T.b. gambiense model to screen inosine analogues and platinum and hypolipidemic compounds, and (3) Microtus embryonic fibroblast culture (MEF) - T.b. rhodesiense model to test standard and experimental drugs. These systems give a good indication of in-vivo activity (see Table 3). They measure activity against dividing cells rather than specific macromolecular synthesis pathways and can be readily established in micro-titre plates. The MEF and bone marrow cell feeder layers can be used to grow a range of strains of T. brucei spp., offering the possibility of examining variations in drug susceptibility and resistance between strains. The presence of a feeder layer, however, limits the opportunities for the automation of these systems.
as §3

[18] = system: T.b. brucei, T.b. gambiense and T.b. rhodesiense; assay: African trypanosomiasis mouse model, in-vivo
Description: as §4, §3

Structure (SMILES) | Activity, PRO (L donovani [1]) | Activity, PRO (L major/L mexicana [2]) | Activity, AM-PRO transform-ation (L donovani [3]) | Activity, AM in cell lines (L donovani [4]) | Activity, AM in cell lines (L major/L mexicana [5]) | Activity, AM in mouse or human mos (L donovani [6]) | Activity, AM in mouse or human mos (L major/L mexicana [7]) | Activity, mouse/ hamster models (L donovani [8]) | Activity, mouse/ hamster models (L major/L mexicana [9]) | Activity, AM-PRO transform-ation (L major/L mexicana [10]) | activity, EPI (T. cruzi [11]; T. cruzi strain MR) | activity, EPI (T. cruzi [11]; T. cruzi strain Sonya) | activity, EPI (T. cruzi [11]; T. cruzi strain Y) | activity, TRY (T. cruzi [12]; T. cruzi strain Sonya) | activity, TRY (T. cruzi [12]; T. cruzi strain Y) | activity, intracellular AM (T. cruzi [13]; T. cruzi strain Sonya) | activity, intracellular AM (T. cruzi [13]; T. cruzi strain Y) | activity, mouse model (T. cruzi [14]; T. cruzi strain Sonya) | activity, mouse model (T. cruzi [14]; T. cruzi strain Y) | activity, procyclic TRY [15] | other results
OC[C@H]1O[C@@H](n2cnc3c(NCc4ccco4)ncnc32)[C@H](O)[C@@H]1O [Furfuryladenosine] | + + | + + | + + | - | + | + | + + | + | + | + + | ++(Y,MR, Sonya) | ++(Y,MR, Sonya) | ++(Y,MR, Sonya) | + (Y,Sonya) | + (Y,Sonya) | + (Y,Sonya) | + (Y,Sonya) | + | ++ | + | activity, isolated bloodstream TRY [16]: + +; activity, cultivated bloodstream TRY [17]: +
CC(C)=CCNc1ncnc2c1ncn2[C@@H]1O[C@H](COP(=O)(O)O)[C@@H](O)[C@H]1O [N6-Isopentenyl Adenosine-5'monophosphate, N^6-(Δ^2-isopentenyl) adenosine-5'-monophosphate] | + + | - | + | - | + | + | + + | + | - | + + | +(Y,MR, Sonya) | +(Y,MR, Sonya) | +(Y,MR, Sonya) | ++(Y,Sonya) | ++(Y,Sonya) | ++(Y,Sonya) | ++(Y,Sonya) | + | ++ | + + | activity, isolated bloodstream TRY [16]: +; activity, cultivated bloodstream TRY [17]: +; activity, mouse model [18]: +
OC[C@H]1O[C@@H](n2cnc3c(NCc4ccccc4)ncnc32)[C@H](O)[C@@H]1O [N6-Benzyladenosine, N^6-benzyladenosine] | + + | + + | + + | - | + | + | + | - | - | + + | +(Y,MR, Sonya) | +(Y,MR, Sonya) | +(Y,MR, Sonya) | + (Y,Sonya) | + (Y,Sonya) | + (Y,Sonya) | + (Y,Sonya) | +(Y)+(Sonya) | +(Y)+(Sonya) | + + | activity, cultivated bloodstream TRY [17]: + +; activity, mouse model [18]: + +
